# Reference: ChEMBL document CHEMBL1122054, “Lysosomotropic agents. 4. Carbobenzoxyglycylphenylalanyl, a new protease-sensitive masking group for introduction into cells” (J Med Chem, 1982)
# Where a SMILES comes first, the peptide text is derived from it. [ ]: non-standard residue; d: D form. The star is where a group is joined. Cbz = O=C(OCc1ccccc1)*
# Tests used:
# Mus musculus [1] = species: Mus musculus; experiment: Toxicity toward P-815 Mastocytoma cells after 5 hr was determined as percent of [51Cr]- release from labeled cells as a measure of cell death at a concentration of 0.312 mM (expt IV); assay type: functional
# Mus musculus [2] = species: Mus musculus; experiment: Toxicity toward P-815 Mastocytoma cells after 5 hr was determined as percent of [51Cr]- release from labeled cells as a measure of cell death at a concentration of 0.312 mM (expt V); assay type: functional
# Mus musculus [3] = species: Mus musculus; experiment: Toxicity toward P-815 Mastocytoma cells after 5 hr was determined as percent of [51Cr]- release from labeled cells as a measure of cell death at a concentration of 0.208 mM (expt III); assay type: functional
# Mus musculus [4] = species: Mus musculus; experiment: Toxicity toward P-815 Mastocytoma cells after 5 hr was determined as percent of [51Cr]- release from labeled cells as a measure of cell death at a concentration of 0.208 mM (expt IV); assay type: functional
# Mus musculus [5] = species: Mus musculus; experiment: Toxicity toward P-815 Mastocytoma cells after 5 hr was determined as percent of [51Cr]- release from labeled cells as a measure of cell death at a concentration of 0.104 mM (expt IV); assay type: functional
# Mus musculus [6] = species: Mus musculus; experiment: Evaluated for the percent inhibition uptake of radiolabeled thymidine as a measure of inhibition of cell division against the SV40-transformed 3T3 cells after 4 hr at the concentration of 1x10E4M for experiment X; assay type: functional
# Mus musculus [7] = species: Mus musculus; experiment: Evaluated for the percent inhibition uptake of radiolabeled thymidine as a measure of inhibition of cell division against the SV40-transformed 3T3 cells after 4 hr at the concentration of 1x10E4M for experiment XI; assay type: functional, NIH3T3
# Mus musculus [8] = species: Mus musculus; experiment: Evaluated for the percent inhibition uptake of radiolabeled thymidine as a measure of inhibition of cell division against the SV40-transformed 3T3 cells after 4 hr at the concentration of 3x10E4M for experiment X; assay type: functional, NIH3T3
# Mus musculus [9] = species: Mus musculus; experiment: Evaluated for the percent inhibition uptake of radiolabeled thymidine as a measure of inhibition of cell division against the SV40-transformed 3T3 cells after 4 hr at the concentration of 3x10E4M for experiment XI; assay type: functional, NIH3T3
# Mus musculus [10] = species: Mus musculus; experiment: Evaluated for the percent inhibition uptake of radiolabeled thymidine as a measure of inhibition of cell division against the SV40-transformed 3T3 cells after 4 hr at the concentration of 6x10E4M for experiment X; assay type: functional
# Mus musculus [11] = species: Mus musculus; experiment: Evaluated for the percent inhibition uptake of radiolabeled thymidine as a measure of inhibition of cell division against the SV40-transformed 3T3 cells after 4 hr at the concentration of 6x10E4M for experiment XI; assay type: functional, NIH3T3
# Mus musculus [12] = species: Mus musculus; experiment: Evaluated for the percent inhibition uptake of radiolabeled thymidine as a measure of inhibition of cell division against the SV40-transformed 3T3 cells at 4 hr at the concentration of 10Mx10E4 for expt VII; assay type: functional, NIH3T3
# Mus musculus [13] = species: Mus musculus; experiment: Evaluated for the percent inhibition uptake of radiolabeled thymidine as a measure of inhibition of cell division against the SV40-transformed 3T3 cells at 4 hr at the concentration of 1Mx10E4 for expt VI; assay type: functional
# Mus musculus [14] = species: Mus musculus; experiment: Evaluated for the percent inhibition uptake of radiolabeled thymidine as a measure of inhibition of cell division against the SV40-transformed 3T3 cells at 4 hr at the concentration of 1Mx10E4 for expt VII; assay type: functional, NIH3T3
# Mus musculus [15] = species: Mus musculus; experiment: Evaluated for the percent inhibition uptake of radiolabeled thymidine as a measure of inhibition of cell division against the SV40-transformed 3T3 cells at 4 hr at the concentration of 3Mx10E4 for expt VI; assay type: functional, NIH3T3
# Mus musculus [16] = species: Mus musculus; experiment: Evaluated for the percent inhibition uptake of radiolabeled thymidine as a measure of inhibition of cell division against the SV40-transformed 3T3 cells at 4 hr at the concentration of 3Mx10E4 for expt VII; assay type: functional, NIH3T3
# Mus musculus [17] = species: Mus musculus; experiment: Evaluated for the percent inhibition uptake of radiolabeled thymidine as a measure of inhibition of cell division against the SV40-transformed 3T3 cells at 4 hr at the concentration of 4Mx10E4 for expt VII; assay type: functional, NIH3T3
# Mus musculus [18] = species: Mus musculus; experiment: Evaluated for the percent inhibition uptake of radiolabeled thymidine as a measure of inhibition of cell division against the SV40-transformed 3T3 cells at 4 hr at the concentration of 6Mx10E4 for expt VI; assay type: functional, NIH3T3
# Mus musculus [19] = species: Mus musculus; experiment: Evaluated for the percent inhibition uptake of radiolabeled thymidine as a measure of inhibition of cell division against the SV40-transformed 3T3 cells at 4 hr at the concentration of 6Mx10E4 for expt VII; assay type: functional, NIH3T3
# Mus musculus [20] = species: Mus musculus; experiment: Evaluated for the percent inhibition uptake of radiolabeled thymidine as a measure of inhibition of cell division against the SV40-transformed 3T3 cells at the concentration of 3*10^-4M after 24 hr; assay type: functional, NIH3T3
# Mus musculus [21] = species: Mus musculus; experiment: Evaluated for the percent inhibition uptake of radiolabeled thymidine as a measure of inhibition of cell division against the SV40-transformed 3T3 cells at the concentration of 3*10^-4M after 3h; assay type: functional, NIH3T3
# Mus musculus [22] = species: Mus musculus; experiment: Evaluated for the percent inhibition uptake of radiolabeled thymidine as a measure of inhibition of cell division against the SV40-transformed 3T3 cells at the concentration of 3*10^-4M after 4 hr; assay type: functional, NIH3T3
# Mus musculus [23] = species: Mus musculus; experiment: Evaluated for the percent inhibition uptake of radiolabeled thymidine as a measure of inhibition of cell division against the SV40-transformed 3T3 cells at the concentration of 3*10^-4M after 6 hr; assay type: functional, NIH3T3
# Mus musculus [24] = species: Mus musculus; experiment: Evaluated for the percent inhibition uptake of radiolabeled thymidine as a measure of inhibition of cell division against the SV40-transformed 3T3 cells at the concentration of 3*10^-4M after 8 hr; assay type: functional, NIH3T3
# Mus musculus [25] = species: Mus musculus; experiment: Evaluated for the percent inhibition uptake of radiolabeled leucine as a measure of inhibition of protein synthesis i.e., cell death against the SV40-transformed 3T3 cells at 4 hr at the concentration of 3Mx10E4 for expt VIII; assay type: functional, NIH3T3
# Mus musculus [26] = species: Mus musculus; experiment: Evaluated for the percent inhibition uptake of radiolabeled leucine as a measure of inhibition of protein synthesis i.e., cell death against the SV40-transformed 3T3 cells at 4 hr at the concentration of 6Mx10E4 for expt VII; assay type: functional, NIH3T3
# Mus musculus [27] = species: Mus musculus; experiment: Evaluated for the percent inhibition uptake of radiolabeled leucine as a measure of inhibition of protein synthesis i.e., cell death against the SV40-transformed 3T3 cells at 4 hr at the concentration of 6Mx10E4 for expt VIII; assay type: functional, NIH3T3
# Mus musculus [28] = species: Mus musculus; experiment: Evaluated for the percent inhibition uptake of radiolabeled thymidine as a measure of inhibition of cell division against the L1210 cells after 4 hr at the concentration of 0.5x10E4M; assay type: functional
# Mus musculus [29] = species: Mus musculus; experiment: Evaluated for the percent inhibition uptake of radiolabeled thymidine as a measure of inhibition of cell division against the L1210 cells after 4 hr at the concentration of 1.5x10E4M; assay type: functional
# Mus musculus [30] = species: Mus musculus; experiment: Evaluated for the percent inhibition uptake of radiolabeled thymidine as a measure of inhibition of cell division against the L1210 cells after 4 hr at the concentration of 3.0x10E4M; assay type: functional
# Mus musculus [31] = species: Mus musculus; experiment: Evaluated for the percent inhibition uptake of radiolabeled leucine as a measure of inhibition of protein synthesis i.e., cell death against the SV40-transformed 3T3 cells at 4 hr at the concentration of 1Mx10E4 for expt VII; assay type: functional, NIH3T3
# Mus musculus [32] = species: Mus musculus; experiment: Evaluated for the percent inhibition uptake of radiolabeled leucine as a measure of inhibition of protein synthesis i.e., cell death against the SV40-transformed 3T3 cells at 4 hr at the concentration of 1Mx10E4 for expt VIII; assay type: functional, NIH3T3
# Mus musculus [33] = species: Mus musculus; experiment: Evaluated for the percent inhibition uptake of radiolabeled leucine as a measure of inhibition of protein synthesis i.e., cell death against the SV40-transformed 3T3 cells at 4 hr at the concentration of 3Mx10E4 for expt VII; assay type: functional, NIH3T3
# Mus musculus [34] = species: Mus musculus; experiment: Toxicity was evaluated for the compound at a concentration of 0.104 mM against […] Mastocytoma.; assay type: functional
# Mus musculus [35] = species: Mus musculus; experiment: Toxicity was evaluated for the compound at a concentration of 0.208 mM against […] Mastocytoma.; assay type: functional
# Mus musculus [36] = species: Mus musculus; experiment: Toxicity was evaluated for the compound at a concentration of 0.312 mM against […] Mastocytoma.; assay type: functional
# Mus musculus [37] = species: Mus musculus; experiment: Appearance of mouse peritoneal macrophages after 3h of treatment with compound at a concentration of 0.375 mM; OK; assay type: functional, organism-based
# Mus musculus [38] = species: Mus musculus; experiment: Toxicity toward P-815 Mastocytoma cells after 5 hr was determined as percent of [51Cr]- release from labeled cells as a measure of cell death. at a concentration of 0.750 mM. (expt III); assay type: functional
# Mus musculus [39] = species: Mus musculus; experiment: Cytotoxicity was determined against mouse peritoneal macrophages (MPM) and the percent of LDH released after 24 hr was determined as a measure of cell death at a concentration of 0.375 mM (expt I); assay type: functional
# Mus musculus [40] = species: Mus musculus; experiment: Cytotoxicity was determined against mouse peritoneal macrophages (MPM) and the percent of LDH released after 24 hr was determined as a measure of cell death at a concentration of 0.375 mM (expt II); assay type: functional
# Mus musculus [41] = species: Mus musculus; experiment: Toxicity toward P-815 Mastocytoma cells after 5 hr was determined as percent of [51Cr]- release from labeled cells as a measure of cell death. at a concentration of 0.281 mM. (expt IV); assay type: functional
# Mus musculus [42] = species: Mus musculus; experiment: Cytotoxicity was determined against mouse peritoneal macrophages (MPM) and the percent of LDH released after 24 hr was determined as a measure of cell death at a concentration of 0.561 mM (expt II); assay type: functional
# Mus musculus [43] = species: Mus musculus; experiment: Toxicity toward P-815 Mastocytoma cells after 5 hr was determined as percent of [51Cr]- release from labeled cells as a measure of cell death. at a concentration of 0.282 mM. (expt IV); assay type: functional
smiles,measurement,setting,value
O=C(CNC(=O)OCc1ccccc1)N[C@H](Cc1ccccc1)C(=O)N(CCCl)CCCl,Cr release,Mus musculus [1],34%
same,Cr release,Mus musculus [2],19%
same,Cr release,Mus musculus [3],29%
same,Cr release,Mus musculus [4],27%
same,Cr release,Mus musculus [5],22%
same,Inhibition uptake,Mus musculus [6],14%
same,Inhibition uptake,Mus musculus [7],36%
same,Inhibition uptake,Mus musculus [8],46%
same,Inhibition uptake,Mus musculus [9],36%
same,Inhibition uptake,Mus musculus [10],90%
same,Inhibition uptake,Mus musculus [11],75%
same,Inhibition uptake,Mus musculus [12],92%
same,Inhibition uptake,Mus musculus [13],7%
same,Inhibition uptake,Mus musculus [14],12%
same,Inhibition uptake,Mus musculus [15],60%
same,Inhibition uptake,Mus musculus [16],46%
same,Inhibition uptake,Mus musculus [17],61%
same,Inhibition uptake,Mus musculus [18],93%
same,Inhibition uptake,Mus musculus [19],70%
same,Inhibition uptake,Mus musculus [20],88%
same,Inhibition uptake,Mus musculus [21],76%
same,Inhibition uptake,Mus musculus [22],80%
same,Inhibition uptake,Mus musculus [23],83%
same,Inhibition uptake,Mus musculus [24],86%
same,Inhibition uptake,Mus musculus [25],33%
same,Inhibition uptake,Mus musculus [26],36%
same,Inhibition uptake,Mus musculus [27],83%
same,Inhibition uptake,Mus musculus [28],28%
same,Inhibition uptake,Mus musculus [29],57%
same,Inhibition uptake,Mus musculus [30],76%
same,Inhibition uptake,Mus musculus [31],-1%
same,Inhibition uptake,Mus musculus [32],5%
same,Inhibition uptake,Mus musculus [33],10%
same,Toxicity,Mus musculus [34],50 µg/mL
same,Toxicity,Mus musculus [35],100 µg/mL
same,Toxicity,Mus musculus [36],150 µg/mL
CCCCCCCCCCCCNCC(F)(F)F,Activity,Mus musculus [37],OK
same,Cr release,Mus musculus [38],15%
same,LDH release,Mus musculus [39],52%
same,LDH release,Mus musculus [40],64%
O=C(CNC(=O)OCc1ccccc1)N[C@H](Cc1ccccc1)C(=O)O (Cbz-Gly-[dF]-OH),Cr release,Mus musculus [41],16%
same,LDH release,Mus musculus [42],17%
NC(=O)[C@@H](Cc1ccccc1)NC(=O)CNC(=O)OCc1ccccc1,Cr release,Mus musculus [43],17%
